Experimental findings from PubChem BioAssay AID1259411 (Chemical Carcinogenesis Research Information System (CCRIS), 2018) are described below.

Each structure is given as a SMILES string. Calls of active or inactive are those of the source. The rule behind the calls is not given here.

The subject of the data set is rodent carcinogenicity bioassays, tumor incidence. As to the kind of experiment: CCRIS carcinogenicity studies. The following applies: Dose: 0. The text has this:
The CCRIS database contains chemical records with carcinogenicity, mutagenicity, tumor promotion, and tumor inhibition test results. It was developed by the National Cancer Institute (NCI). Data are derived from studies cited in primary journals, current awareness tools, NCI reports, and other sources. Test results have been reviewed by experts in carcinogenesis and mutagenesis.
CCRIS provides historical information from the years 1985 - 2011. It is no longer updated.
This is an archive assay for CCRIS carcinogenicity studies.

Turning to `Cc1nc(N)cc2[nH]c3ccccc3c12`, the carcinogen call is “active; positive” (Species: MOUSE, Strain/Sex: CDF1/FEMALE, Route: ORAL, 200 PPM IN DIET FOR 621 D, Tumor Site: Type of Lesion: LIVER: HEPATOCELLULAR CARCINOMA); “active; positive” (Species: MOUSE, Strain/Sex: DDY/FEMALE, Route: BLADDER IMPLANT, 5% IN PARAFFIN PELLET (STUDY DURATION: 40 WK), Tumor Site: Type of Lesion: URINARY BLADDER: TRANSITIONAL CELL CARCINOMA); “active; positive” (Species: RAT, Strain/Sex: F344/FEMALE, Route: ORAL, 30, 100 PPM IN DIET FOR 112 WK (STUDY DURATION: 112 WK), 30, 100 PPM IN DIET FOR 112 WK (STUDY DURATION: 112 WK), Tumor Site: Type of Lesion: MAMMARY GLAND: FIBROADENOMA OR FIBROMA, HEMATOPOIETIC SYSTEM: MALIGNANT LYMPHOMA, CLITORAL GLAND: ADENOMA, Tumor Site: Type of Lesion: MAMMARY GLAND: FIBROADENOMA OR FIBROMA, HEMATOPOIETIC SYSTEM: MALIGNANT LYMPHOMA, CLITORAL GLAND: ADENOMA); “active; positive” (Species: RAT, Strain/Sex: F344/MALE, Route: ORAL, 30, 100 PPM IN DIET FOR 112 WK (STUDY DURATION: 112 WK), 30, 100 PPM IN DIET FOR 112 WK (STUDY DURATION: 112 WK), Tumor Site: Type of Lesion: LIVER: HEPATOCELLULAR ADENOMA, URINARY BLADDER: TRANSITIONAL CELL PAPILLOMA, MAMMARY GLAND: FIBROADENOMA OR FIBROMA, Tumor Site: Type of Lesion: LIVER: HEPATOCELLULAR ADENOMA, URINARY BLADDER: TRANSITIONAL CELL PAPILLOMA, MAMMARY GLAND: FIBROADENOMA OR FIBROMA).

Regarding `CCCCC(CC)COC(=O)CCCCC(=O)OCC(CC)CCCC` (stereo unspecified), the carcinogen call reads like this: (Species: MOUSE, Strain/Sex: B6C3F1/FEMALE, Route: ORAL, 12000, 25000 PPM IN DIET FOR 102-104 WK (STUDY DURATION: 102-104 WK), 12000, 25000 PPM IN DIET FOR 102-104 WK (STUDY DURATION: 102-104 WK), Tumor Site: Type of Lesion: LIVER: CARCINOMA, CARCINOMA OR ADENOMA) “active; positive”; (Species: MOUSE, Strain/Sex: B6C3F1/FEMALE, Route: ORAL, 12000, 25000 PPM IN DIET FOR 103 WK (STUDY DURATION: 105-106 WK), 12000, 25000 PPM IN DIET FOR 103 WK (STUDY DURATION: 105-106 WK), Tumor Site: Type of Lesion: LIVER: HEPATOCELLULAR CARCINOMA) “active; positive”; (Species: MOUSE, Strain/Sex: B6C3F1/MALE, Route: ORAL, 12000, 25000 PPM IN DIET FOR 102-104 WK (STUDY DURATION: 102-104 WK), 12000, 25000 PPM IN DIET FOR 102-104 WK (STUDY DURATION: 102-104 WK), Tumor Site: Type of Lesion: LIVER: CARCINOMA OR ADENOMA) “active; positive”; (Species: MOUSE, Strain/Sex: B6C3F1/MALE, Route: ORAL, 12000, 25000 PPM IN DIET FOR 103 WK (STUDY DURATION: 104-106 WK), 12000, 25000 PPM IN DIET FOR 103 WK (STUDY DURATION: 104-106 WK), Tumor Site: Type of Lesion: LIVER: HEPATOCELLULAR CARCINOMA, HEPATOCELLULAR ADENOMA OR CARCINOMA) “active; positive”; (Species: RAT, Strain/Sex: F344/FEMALE, Route: ORAL, 12000, 25000 PPM IN DIET FOR 102-104 WK (STUDY DURATION: 102-104 WK), 12000, 25000 PPM IN DIET FOR 102-104 WK (STUDY DURATION: 102-104 WK)) “inactive; negative”; (Species: RAT, Strain/Sex: F344/FEMALE, Route: ORAL, 12000, 25000 PPM IN DIET FOR 103 WK (STUDY DURATION: 104-107 WK), 12000, 25000 PPM IN DIET FOR 103 WK (STUDY DURATION: 104-107 WK)) “inactive; negative”. The carcinogen call runs as follows: (Species: RAT, Strain/Sex: F344/MALE, Route: ORAL, 12000, 25000 PPM IN DIET FOR 102-104 WK (STUDY DURATION: 102-104 WK), 12000, 25000 PPM IN DIET FOR 102-104 WK (STUDY DURATION: 102-104 WK)) “inactive; negative”; (Species: RAT, Strain/Sex: F344/MALE, Route: ORAL, 12000, 25000 PPM IN DIET FOR 103 WK (STUDY DURATION: 104-107 WK), 12000, 25000 PPM IN DIET FOR 103 WK (STUDY DURATION: 104-107 WK)) “inactive; negative”.

As to `N[C@@H](CCC(=O)N[C@@H](CSc1cc(O)c(SC[C@H](NC(=O)CC[C@H](N)C(=O)O)C(=O)NCC(=O)O)c(SC[C@H](NC(=O)CC[C@H](N)C(=O)O)C(=O)NCC(=O)O)c1O)C(=O)NCC(=O)O)C(=O)O`, the carcinogen call (Species: RAT, Strain/Sex: EKER(TSC2 MUTANT)/MALE, Route: INTRAPERITIONEAL, 2.5 UMOL/KG BW 5 BW 5 D/WK FOR 4 MO FOLLOWED BY 3.5 UMOL/KG BW 5 D/WK FOR 6 MO (STUDY DURATION: 10 MO), Tumor Site: Type of Lesion: KIDNEY: ADENOMA OR CARCINOMA) was “active; positive”.

Turning to `Cn1cc(-c2ccccc2)c(=O)c(-c2cccc(C(F)(F)F)c2)c1`, the carcinogen call (Species: Mouse, Strain/Sex: ICR/Female (60?/Group), Route: Oral, 33, 100, 330 ppm (0; 4.0; 12.3; 34.5 mg/kg/day) of 97.2-97.8% fluridone in diet for 2 yr, study duration 2 yr, 33, 100, 330 ppm (0; 4.0; 12.3; 34.5 mg/kg/day) of 97.2-97.8% fluridone in diet for 2 yr, study duration 2 yr) is “inactive; negative. (possible increased incidence of skin fibrosarcomas in high dose femal”; the carcinogen call (Species: Mouse, Strain/Sex: ICR/Male (60?/Group), Route: Oral, 33, 100, 330 ppm (0; 3.5; 10.9; 30.7 mg/kg/day) of 97.2-97.8% fluridone in diet for 2 yr, study duration 2 yr, 33, 100, 330 ppm (0; 3.5; 10.9; 30.7 mg/kg/day) of 97.2-97.8% fluridone in diet for 2 yr, study duration 2 yr) was “inactive; negative”; the carcinogen call (Species: Rat, Strain/Sex: Fischer 344/Female (60/Group), Route: Oral, 200, 650, 2000 ppm of 97.2-97.8% fluridone in diet for 2 yr, study duration 2 yr, 200, 650, 2000 ppm of 97.2-97.8% fluridone in diet for 2 yr, study duration 2 yr) is “inactive; negative”; the carcinogen call (Species: Rat, Strain/Sex: Fischer 344/Male (60/Group), Route: Oral, 200, 650, 2000 ppm of 97.2-97.8% fluridone in diet for 2 yr, study duration 2 yr, 200, 650, 2000 ppm of 97.2-97.8% fluridone in diet for 2 yr, study duration 2 yr) was “inactive; negative”.

As to `O=C(O)C1C(C(=O)O)C2(Cl)C(Cl)=C(Cl)C1(Cl)C2(Cl)Cl` (stereo unspecified), the carcinogen call runs as follows: (Species: MOUSE, Strain/Sex: B6C3F1/FEMALE, Route: ORAL, 620, 1250 PPM IN DIET FOR 103 WK (STUDY DURATION: 104 WK), 620, 1250 PPM IN DIET FOR 103 WK (STUDY DURATION: 104 WK)) “inactive; negative”; (Species: MOUSE, Strain/Sex: B6C3F1/MALE, Route: ORAL, 620, 1250 PPM IN DIET FOR 103 WK (STUDY DURATION: 104 WK), 620, 1250 PPM IN DIET FOR 103 WK (STUDY DURATION: 104 WK), Tumor Site: Type of Lesion: LIVER: HEPATOCELLULAR ADENOMA, LIVER: HEPATOCELLULAR CARCINOMA, LIVER: HEPATOCELLULAR ADENOMA OR CARCINOMA, Tumor Site: Type of Lesion: LIVER: HEPATOCELLULAR ADENOMA, LIVER: HEPATOCELLULAR CARCINOMA, LIVER: HEPATOCELLULAR ADENOMA OR CARCINOMA) “active; positive”; (Species: RAT, Strain/Sex: F344/FEMALE, Route: ORAL, 620, 1250 PPM IN DIET FOR 103 WK (STUDY DURATION: 104 WK), 620, 1250 PPM IN DIET FOR 103 WK (STUDY DURATION: 104 WK), Tumor Site: Type of Lesion: LIVER: NEOPLASTIC NODULE, LIVER: HEPATOCELLULAR CARCINOMA, LIVER: NEOPLASTIC NODULE OR HEPATOCELLULAR CARCINOMA, UTERUS:, Tumor Site: Type of Lesion: LIVER: NEOPLASTIC NODULE, LIVER: HEPATOCELLULAR CARCINOMA, LIVER: NEOPLASTIC NODULE OR HEPATOCELLULAR CARCINOMA, UTERUS:) “active; positive”; (Species: RAT, Strain/Sex: F344/MALE, Route: ORAL, 620, 1250 PPM IN DIET FOR 103 WK (STUDY DURATION: 104 WK), 620, 1250 PPM IN DIET FOR 103 WK (STUDY DURATION: 104 WK), Tumor Site: Type of Lesion: LUNG: ALVEOLAR/BRONCHIOLAR ADENOMA, LUNG: ALVEOLAR/BRONCHIOLAR ADENOMA OR CARCINOMA, LIVER: NEOPLASTIC NODULE, LIVER: NE, Tumor Site: Type of Lesion: LUNG: ALVEOLAR/BRONCHIOLAR ADENOMA, LUNG: ALVEOLAR/BRONCHIOLAR ADENOMA OR CARCINOMA, LIVER: NEOPLASTIC NODULE, LIVER: NE) “active; positive”.
